{"source": "patent US20090093460A1", "about": "“Compositions” (AstraZeneca AB, priority 2003, published 2009)", "key": {"[1]": {"target": "T1, brain serotonin 5-HT2 receptor (Homo sapiens, UniProt P28223)", "T1 construct": "from tissue; host or cells: brain", "T1 sequence (P28223 whole entry)": "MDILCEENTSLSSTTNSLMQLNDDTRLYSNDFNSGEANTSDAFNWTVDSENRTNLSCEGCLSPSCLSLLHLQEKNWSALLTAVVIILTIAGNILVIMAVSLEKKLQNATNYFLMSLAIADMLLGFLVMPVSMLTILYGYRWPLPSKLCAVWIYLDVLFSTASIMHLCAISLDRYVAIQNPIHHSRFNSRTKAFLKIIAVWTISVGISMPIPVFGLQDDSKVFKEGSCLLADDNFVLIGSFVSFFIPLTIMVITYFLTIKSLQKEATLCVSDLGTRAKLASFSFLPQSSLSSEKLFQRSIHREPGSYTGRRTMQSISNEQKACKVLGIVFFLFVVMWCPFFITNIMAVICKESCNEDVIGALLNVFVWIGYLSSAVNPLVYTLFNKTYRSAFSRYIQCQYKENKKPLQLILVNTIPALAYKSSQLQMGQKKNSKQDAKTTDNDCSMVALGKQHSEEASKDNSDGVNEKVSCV", "experiment": "In vitro binding, brain serotonin 5-HT2 receptor", "settings": "dihydrochloride salt; read-out: binding affinity K1"}, "dopamine D1 receptor": {"target": "T2, dopamine D1 receptor (Homo sapiens, UniProt P21728)", "T2 construct": "from tissue; host or cells: brain", "T2 sequence (P21728 whole entry)": "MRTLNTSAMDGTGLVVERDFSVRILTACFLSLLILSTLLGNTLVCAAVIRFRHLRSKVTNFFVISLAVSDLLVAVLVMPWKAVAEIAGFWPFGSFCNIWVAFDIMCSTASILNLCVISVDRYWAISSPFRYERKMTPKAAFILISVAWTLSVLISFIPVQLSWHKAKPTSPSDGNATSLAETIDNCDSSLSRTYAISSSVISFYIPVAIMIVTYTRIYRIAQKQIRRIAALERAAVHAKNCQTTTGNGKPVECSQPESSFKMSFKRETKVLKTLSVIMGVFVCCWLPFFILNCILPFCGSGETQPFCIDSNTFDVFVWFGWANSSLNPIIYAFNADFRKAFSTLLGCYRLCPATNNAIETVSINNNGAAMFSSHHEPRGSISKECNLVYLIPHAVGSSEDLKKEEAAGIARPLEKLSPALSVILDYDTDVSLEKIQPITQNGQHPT", "experiment": "In vitro binding, dopamine D1 receptor", "settings": "dihydrochloride salt; read-out: binding affinity K1"}, "mice [2]": {"system": "mice", "experiment": "Standard apomorphine climbing mouse assay", "type": "in vivo", "settings": "p.o.", "text": "The methods and procedures used can be found in Warawa et al., J. Med. Chem., 2001, 44 (3), 372-389, and are incorporated herein by reference."}, "dopamine D2 receptor": {"target": "dopamine D2 receptor (Homo sapiens, UniProt P14416)", "sequence (P14416 whole entry)": "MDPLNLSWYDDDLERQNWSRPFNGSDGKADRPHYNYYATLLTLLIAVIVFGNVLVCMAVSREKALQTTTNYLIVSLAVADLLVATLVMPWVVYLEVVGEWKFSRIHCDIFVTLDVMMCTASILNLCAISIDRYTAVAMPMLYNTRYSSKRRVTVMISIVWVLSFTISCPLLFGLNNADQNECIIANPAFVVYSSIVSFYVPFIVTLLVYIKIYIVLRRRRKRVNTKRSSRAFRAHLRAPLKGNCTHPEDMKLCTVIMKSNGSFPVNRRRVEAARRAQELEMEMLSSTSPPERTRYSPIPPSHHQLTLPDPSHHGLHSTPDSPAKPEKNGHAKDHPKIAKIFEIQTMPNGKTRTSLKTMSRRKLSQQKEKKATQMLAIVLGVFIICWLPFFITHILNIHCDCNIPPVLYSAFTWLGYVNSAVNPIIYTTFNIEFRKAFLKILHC", "experiment": "In vitro binding, dopamine D2 receptor", "settings": "dihydrochloride salt; read-out: binding affinity K1"}, "mice [3]": {"system": "mice", "experiment": "Mouse forced swim test", "type": "in vivo", "settings": "5.0, 10.0 and 20.0 mg/kg sc, 15 minutes prior", "method": "Methods: Mice were placed in cylinders of water (25.0° C.±1.5° C.) for 6 minutes. The amount of immobility was quantified during the last 4 minutes of each session. The experimental observer was blind to the treatment conditions. […] Imipramine 45.0 mg/kg and citalopram 15.0 mg/kg were measured as the salt and administered ip 60 minutes prior to the behavioural session."}, "mice [4]": {"system": "mice", "experiment": "Tail suspension test", "type": "in vivo, mouse", "settings": "30 mg/kg p.o., 60 minutes prior", "method": "Antidepressant activity of 11-piperazin-1-yldibenzo[b,f][1,4]thiazepine was assessed in mice according to the tail suspension test. As shown in the results below, 11-piperazin-1-yldibenzo[b,f][1,4]thiazepine has antidepressant activity in mice.\nIn a first experiment, mice (n=10/group) were treated with vehicle, 2.0, 5.0, or 10.0 mg/kg of 11-piperazin-1-yldibenzo[b,f][1,4]thiazepine s.c. 15 minutes prior to the test session. Mice were suspended from their tails for 7 minutes. During the last 5 minutes of the test, the duration of immobility was recorded. In a second experiment, mice (n=10/group) were treated with vehicle, 30 mg/kg 11-piperazin-1-yldibenzo[b,f][1,4]thiazepine, or 30 mg/kg fluoxetine p.o. 60 minutes prior to the test session. Mice were suspended from their tails for 7 minutes. During the last 5 minutes of the test, the duration of immobility was recorded."}}, "note": "pKi: −log10 of the molar value."}
{"smiles": "Cl.Cl.c1ccc2c(c1)N=C(N1CCNCC1)c1ccccc1S2", "note": "[Example 2, 11-piperazin-1-yldibenzo[b,f][1,4]thiazepine, dihydrochloride salt]", "values": [{"measurement": "pKi", "setting": "[1]", "result": 7.57}, {"measurement": "pKi", "setting": "dopamine D1 receptor", "result": 5.83}, {"measurement": "in vivo antipsychotic activity", "setting": "mice [2]", "result": "not found to be efficacious"}, {"measurement": "pKi", "setting": "dopamine D2 receptor", "result": 6.63}]}
{"smiles": "OCCOCCN1CCN(C2=Nc3ccccc3Sc3ccccc32)CC1", "note": "[Quetiapine, reference compound]", "values": [{"measurement": "antidepressant effect (immobility)", "setting": "mice [3]", "result": "no effect"}]}
{"smiles": "CNCCC(Oc1ccc(C(F)(F)F)cc1)c1ccccc1", "note": "(stereo not shown) [fluoxetine, reference compound]", "values": [{"measurement": "reduction of immobility, fraction of that of the vehicle control group", "setting": "mice [4]", "result": "more than ½"}, {"measurement": "duration of immobility compared to the vehicle control group", "setting": "mice [4]; p<0.01", "result": "significantly reduced immobility"}]}
